Target: T1, 5-HT2B receptor (Homo sapiens, UniProt P41595)
T1 construct: gene HTR2B
Assay: [3H]-LSD radioligand displacement at […] (PDSP primary screen); partial agonist in Ca2+ flux
Format: binding

T1 sequence (P41595 whole entry): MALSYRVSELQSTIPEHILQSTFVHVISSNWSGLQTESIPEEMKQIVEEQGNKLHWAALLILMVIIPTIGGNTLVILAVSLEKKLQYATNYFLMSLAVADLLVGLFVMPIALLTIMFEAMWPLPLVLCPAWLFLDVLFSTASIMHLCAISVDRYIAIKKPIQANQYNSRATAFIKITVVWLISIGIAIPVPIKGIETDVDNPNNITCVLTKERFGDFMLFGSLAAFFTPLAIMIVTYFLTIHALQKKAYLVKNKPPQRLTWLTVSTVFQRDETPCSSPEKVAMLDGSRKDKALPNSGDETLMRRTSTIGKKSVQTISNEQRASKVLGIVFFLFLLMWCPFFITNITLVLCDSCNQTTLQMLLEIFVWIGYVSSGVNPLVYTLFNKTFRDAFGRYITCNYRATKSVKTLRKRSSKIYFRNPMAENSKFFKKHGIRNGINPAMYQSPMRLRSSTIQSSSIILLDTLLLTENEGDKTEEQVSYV

`O=C(C1CCCCC1)N1CC(=O)N2CCc3ccccc3[C@@H]2C1` [(R)-PZQ] was tested, and the “[3H]-LSD radioligand displacement at 5 μM (PDSP primary screen); partial agonist” value was “the human 5-HT2B receptor (5-HT2BR)—where inhibition seen with (±)-PZQ was attributable solely to (R)-PZQ”.

— paper PMC5716991, “The anthelmintic praziquantel is a human serotoninergic G-protein-coupled receptor ligand” (Nature Communications, 2017)
